Test results taken from ChEMBL document CHEMBL1201862, “PubChem BioAssay data set” (2004).
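Method: 48-hour compound exposure of cells in 96-well plates, five concentrations, linear interpolation of endpoints. At the GI50, growth is halved.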 The source made the active and inactive calls. Rule as the data show it: active = GI50 up to about 1.1 µM and inactive = higher.

Experiments:
Assay in all cases: NCI tumour cell line growth inhibition, 48 h
[1] = test system: SR
[2] = test system: MDA-N
[3] = test system: NCI-H23
[4] = test system: OVCAR-3
[5] = test system: PC-3
[6] = test system: M14
[7] = test system: RXF 393
[8] = test system: HT-29
[9] = test system: NCI-H522
[10] = test system: CCRF-CEM
[11] = test system: DU-145
[12] = test system: CAKI-1
[13] = test system: EKVX
[14] = test system: SF-268
[15] = test system: OVCAR-4
[16] = test system: K562
[17] = test system: HOP-62
[18] = test system: SK-MEL-5
[19] = test system: NCI-H226
[20] = test system: U-251
[21] = test system: OVCAR-5
[22] = test system: A498
[23] = test system: MDA-MB-231
[24] = test system: SF-539
[25] = test system: KM12
[26] = test system: MCF7
[27] = test system: UO-31
[28] = test system: SNB-75
[29] = test system: SK-OV-3
[30] = test system: LOX IMVI
[31] = test system: OVCAR-8
[32] = test system: MDA-MB-435
[33] = test system: SK-MEL-2
[34] = test system: Hs-578T
[35] = test system: SF-295
[36] = test system: ACHN
[37] = test system: HCT-116
[38] = test system: NCI-H460
[39] = test system: HOP-92
[40] = test system: T47D
[41] = test system: SK-MEL-28
[42] = test system: HCT-15
[43] = test system: 786-0
[44] = test system: RPMI-8226
[45] = test system: IGROV-1
[46] = test system: MOLT-4
[47] = test system: TK-10
[48] = test system: HL-60
[49] = test system: SW-620
[50] = test system: NCI/ADR-RES
[51] = test system: HCC 2998
[52] = test system: UACC-257
[53] = test system: SN12C
[54] = test system: Malme-3M
[55] = test system: COLO 205
[56] = test system: SNB-19
[57] = test system: A549
[58] = test system: UACC-62

**Q.** For COc1ccc(/C=C2/C(C)=NN(c3cccc(Cl)c3)/C2=N/c2nc3ccccc3s2)cc1, which GI50 [1] is on record?
**A.** 23.9 µM (inactive)

**Q.** What about the GI50 [2] of the same compound?
**A.** 21.7 µM (inactive)

**Q.** What about the GI50 [3] of the same compound?
**A.** 16.9 µM (inactive)

**Q.** What about the GI50 [4] of the same compound?
**A.** 20.2 µM (inactive)

**Q.** And the GI50 [5]?
**A.** 19 µM (inactive)

**Q.** And the GI50 [6]?
**A.** 25.1 µM (inactive)

**Q.** And the GI50 [7]?
**A.** 12 µM (inactive)

**Q.** What about the GI50 [8] of the same compound?
**A.** 19.5 µM (inactive)

**Q.** What about the GI50 [9] of the same compound?
**A.** 19.1 µM (inactive)

**Q.** And the GI50 [10]?
**A.** 25.3 µM (inactive)

**Q.** And the GI50 [11]?
**A.** 19.6 µM (inactive)

**Q.** What about the GI50 [12] of the same compound?
**A.** 28.4 µM (inactive)

**Q.** What about the GI50 [13] of the same compound?
**A.** 40.2 µM (inactive)

**Q.** And the GI50 [14]?
**A.** 25.6 µM (inactive)

**Q.** What about the GI50 [15] of the same compound?
**A.** 37.4 µM (inactive)

**Q.** And the GI50 [16]?
**A.** 26.7 µM (inactive)

**Q.** What about the GI50 [17] of the same compound?
**A.** 20 µM (inactive)

**Q.** And the GI50 [18]?
**A.** 16.6 µM (inactive)

**Q.** And the GI50 [19]?
**A.** 22.3 µM (inactive)

**Q.** What about the GI50 [20] of the same compound?
**A.** 20.7 µM (inactive)

**Q.** What about the GI50 [21] of the same compound?
**A.** 25.1 µM (inactive)

**Q.** What about the GI50 [22] of the same compound?
**A.** 23.1 µM (inactive)

**Q.** What about the GI50 [23] of the same compound?
**A.** 24.7 µM (inactive)

**Q.** And the GI50 [24]?
**A.** 26.7 µM (inactive)

**Q.** And the GI50 [25]?
**A.** 30.4 µM (inactive)

**Q.** And the GI50 [26]?
**A.** 28.8 µM (inactive)

**Q.** And the GI50 [27]?
**A.** 19.3 µM (inactive)

**Q.** And the GI50 [28]?
**A.** 26.8 µM (inactive)

**Q.** What about the GI50 [29] of the same compound?
**A.** 24 µM (inactive)

**Q.** And the GI50 [30]?
**A.** 18 µM (inactive)

**Q.** What about the GI50 [31] of the same compound?
**A.** 22.6 µM (inactive)

**Q.** What about the GI50 [32] of the same compound?
**A.** 33.7 µM (inactive)

**Q.** What about the GI50 [33] of the same compound?
**A.** 22.3 µM (inactive)

**Q.** And the GI50 [34]?
**A.** 24.7 µM (inactive)

**Q.** What about the GI50 [35] of the same compound?
**A.** 22.5 µM (inactive)

**Q.** And the GI50 [36]?
**A.** 20.6 µM (inactive)

**Q.** And the GI50 [37]?
**A.** 19.2 µM (inactive)

**Q.** And the GI50 [38]?
**A.** 20.4 µM (inactive)

**Q.** What about the GI50 [39] of the same compound?
**A.** 20.9 µM (inactive)

**Q.** What about the GI50 [40] of the same compound?
**A.** 34 µM (inactive)

**Q.** What about the GI50 [41] of the same compound?
**A.** 20.6 µM (inactive)

**Q.** What about the GI50 [42] of the same compound?
**A.** 17.5 µM

**Q.** And the GI50 [43]?
**A.** 20.3 µM (inactive)

**Q.** And the GI50 [44]?
**A.** 22.7 µM (inactive)

**Q.** And the GI50 [45]?
**A.** 20.7 µM (inactive)

**Q.** And the GI50 [46]?
**A.** 24.9 µM (inactive)

**Q.** What about the GI50 [47] of the same compound?
**A.** 29 µM (inactive)

**Q.** What about the GI50 [48] of the same compound?
**A.** 20.7 µM (inactive)

**Q.** And the GI50 [49]?
**A.** 22.7 µM (inactive)

**Q.** What about the GI50 [50] of the same compound?
**A.** 22.9 µM (inactive)

**Q.** And the GI50 [51]?
**A.** 18.3 µM (inactive)

**Q.** And the GI50 [52]?
**A.** 22.6 µM (inactive)

**Q.** Which results are given for CCOP(=O)(O)C(C)(C)NC?
**A.** GI50 [53]: > 100 µM (inactive); GI50 [2]: > 100 µM (inactive); GI50 [3]: > 100 µM (inactive); GI50 [4]: > 100 µM (inactive); GI50 [5]: > 100 µM (inactive); GI50 [6]: > 100 µM (inactive); GI50 [7]: > 100 µM (inactive); GI50 [8]: > 100 µM (inactive); GI50 [9]: > 100 µM (inactive); GI50 [10]: > 100 µM (inactive); GI50 [11]: > 100 µM (inactive); GI50 [12]: > 10 µM (inactive); GI50 [13]: > 100 µM (inactive); GI50 [14]: > 100 µM (inactive); GI50 [54]: > 100 µM (inactive); GI50 [15]: > 100 µM (inactive); GI50 [16]: > 100 µM (inactive); GI50 [17]: > 100 µM (inactive); GI50 [18]: > 100 µM (inactive); GI50 [19]: > 100 µM (inactive); GI50 [20]: > 100 µM (inactive); GI50 [21]: > 100 µM (inactive); GI50 [22]: > 100 µM (inactive); GI50 [23]: > 100 µM (inactive); GI50 [24]: > 100 µM (inactive); GI50 [25]: > 100 µM (inactive); GI50 [27]: > 100 µM (inactive); GI50 [55]: > 100 µM (inactive); GI50 [56]: > 100 µM (inactive); GI50 [29]: > 100 µM (inactive); GI50 [30]: > 100 µM (inactive); GI50 [31]: > 100 µM (inactive); GI50 [32]: > 100 µM (inactive); GI50 [33]: > 100 µM (inactive); GI50 [34]: > 100 µM (inactive); GI50 [35]: > 100 µM (inactive); GI50 [36]: > 100 µM (inactive); GI50 [37]: > 100 µM (inactive); GI50 [38]: > 100 µM (inactive); GI50 [39]: > 100 µM (inactive); GI50 [40]: > 100 µM (inactive); GI50 [41]: > 100 µM (inactive); GI50 [42]: > 100 µM; GI50 [43]: > 100 µM (inactive); GI50 [44]: > 100 µM (inactive); GI50 [45]: > 100 µM (inactive); GI50 [46]: > 100 µM (inactive); GI50 [47]: > 100 µM (inactive); GI50 [57]: > 100 µM (inactive); GI50 [58]: > 100 µM (inactive); GI50 [48]: > 100 µM (inactive); GI50 [49]: > 100 µM (inactive); GI50 [50]: > 100 µM (inactive); GI50 [51]: > 100 µM (inactive); GI50 [52]: > 100 µM (inactive)
